Test results as given in patent publication US20130266590A1, “DIMERIC IAP INHIBITORS” (NOVARTIS AG, priority 2010, published 2013).
Counter-ions that a name gives are not always drawn.

Key:
XIAP-BIR3 = XIAP-BIR3 (Homo sapiens, UniProt P98170); assay: Biacore SPR solution competition binding assay vs smac7mer peptide, XIAP-BIR3; conditions: SPR competition with captured smac7mer peptide; 100 nM XIAP-BIR3; 25° C.; read-out: XIAP-BIR3 Binding Biacore (Competitive) EC50
Source text: (§1) The compounds described herein above were profiled using a cellular assay (using Panc3.27 tumor cells) and a binding assay to determine the competition between the compounds of the present invention and smac7mer peptide for XIAP-BIR3 and cIAP1-BIR3 binding groove occupancy.
(§2) The present method includes utility of a Surface plasmon resonance (SPR)-based biosensor (Biacore™, GE Healthcare, Uppsala, Sweden) to examine competition between the compounds of the present invention and smac7mer peptide for XIAP-BIR3 and cIAP1-BIR3 binding groove occupancy.
(§3) Biacore™ utilizes the phenomenon of surface plasmon resonance (SPR) to detect and measure binding interactions. In a typical Biacore experiment, one of the interacting molecules is immobilized on a flexible dextran matrix while the interacting partner is flowed over the derivatized surface. A binding interaction results in an increase in mass on the sensor surface and a corresponding direct change in the refractive index of the medium in the vicinity of the sensor surface. Changes in refractive index or signal are recorded in resonance units (R.U.) Signal changes due to association and dissociation of complexes are monitored in a non-invasive manner, continuously and in real-time, the results of which are reported in the form of a sensorgram.
(§4) Biacore™ T100 (GE Healthcare, Uppsala, Sweden) was used to conduct all experiments reported herein. Sensor surface preparation and interaction analyses were performed at 25° C. Buffer and Biacore reagents were purchased from GE Healthcare. Running buffer containing 10 mM Hepes, pH7.4, 150 mM sodium chloride, 1.25 mM Dithiothreitol, 2% Dimethyl sulfoxide and 0.05% polysorbate 20 was utilized throughout all experiments.
(§5) Biotinylated smac7mer peptide was diluted to 10 nM in running buffer and captured onto a sensor surface pre-derivatized with streptavidin (sensor chip SA) towards peptide surface densities in the range 40-100 R.U. Peptide captured surfaces were blocked with 500 μM PEO2-Biotin (Thermo Scientific).
(§6) Interaction analyses were performed by first equilibrating each compound within a six point seven fold compound dilution series in the range 1 μM to 0.06 nM with either 100 nM XIAP-BIR3 or 6 nM cIAP1-BIR3 for at least one hour during instrument start-up procedures. Protein compound mixtures were then injected over reference and smac7mer peptide surfaces in series for 60 seconds at a flow-rate of 60 μL/min. Surface regeneration was performed at the end of each analysis cycle by a 30 second injection of 10 mM Glycine, pH 2.5, 1M Sodium Chloride, 0.05% polysorbate 20. Additionally, control compound samples and control XIAP-BIR3 or cIAP1-BIR3 samples were prepared and run at regular intervals to monitor surface and assay performance.
(§7) Data analyses were carried out using Biacore™ T100 evaluation software v2.0 to validate assay quality. Binding level report points were plotted versus logarithmic compound concentration values and analyzed in Graphpad prism 5 via non-linear regression using a one-site competition model. EC50 values were generated and used as a measure of inhibitor potency.

cIAP1-BIR3 = cIAP1-BIR3 (Homo sapiens, UniProt Q13490); assay: Biacore SPR solution competition binding assay vs smac7mer peptide, cIAP1-BIR3; conditions: SPR competition with captured smac7mer peptide; 6 nM cIAP1-BIR3; 25° C.; read-out: CIAP-BIR3 Binding Biacore (Competitive) EC50
Source text: as §1, §2, §3, §4, §5, §6, §7

Panc3.27 tumor cells = assay: Cellular assay: Panc3.27 tumor cell proliferation (Cell Titer Glo); assay type: cell-based; conditions: Panc3.27 cells, 4000 cells per well, 72 hour growth, CTG readout, percent control growth; read-out: PANC proliferation IC50
Protocol: as §1
Cellular Assay—Treatment of Panc3.27 Tumor Cells with Dimeric IAP Antagonists
On day one adherent Panc3.27 cells are plated into two 96-well, clear, flat bottom plates. All wells in row A contain 90 uL of media. All wells in rows B-G contain a total volume of 90 uL per well and 4000 cells per well for Panc3.27 cell lines. Plates are then incubated overnight for 18 hours at 37° C., 5% CO2.
On day two cells are treated with the compounds of formula M-L-M′. Treatments are done in triplicate. The compounds are first serially diluted in DMSO and then added to media giving a final concentration of 0.2% DMSO when added to cells. Cells are treated with 10 uL of serially diluted compounds of formula M-L-M′ at a final concentration of 1000 nM, 200 nM, 40 nM, 8 nM, 1.6 nM, 0.32 nM, 0.06 nM, 0.013 nM, 0.0026 nM, and one untreated well. Plate two is used as a time zero plate.
To measure cell viability 50 uL of Cell Titer Glo (CTG) solution is added to row A, media only and B, cells and media. CTG is purchased from Promega Corporation catalog number G7573. The solution is prepared according to manufacturer's instructions. CTG measures the amount of ATP released from viable cells that is proportional to the number of cells in each well. After incubating for ten minutes with CTG plates are measured on a luminescent reader at 700 nm wavelength. Read time is approximately one second per well for a 96-well plate.
On day five 50 uL of CTG is added to plate one, rows A-G, incubated for 10 minutes at room temperature and read on a luminescent reader. Raw data is adjusted to account for the time zero plate as well as background noise. Triplicate values are averaged and percent control growth is calculated. Percent control growth is calculated using the following logical test: If well read data point (a) is greater than time zero data point (t=0), then 100*[(a)−(t=0)]/[(72 hour total growth)−(t=0)], OR 100*[(a)−(t=0)]/[(t=0)]. Data is represented by line graph with the concentration of compound on the x axis and percent control growth on the y axis.

Sequence of XIAP-BIR3 (P98170 241-356 limits assumed): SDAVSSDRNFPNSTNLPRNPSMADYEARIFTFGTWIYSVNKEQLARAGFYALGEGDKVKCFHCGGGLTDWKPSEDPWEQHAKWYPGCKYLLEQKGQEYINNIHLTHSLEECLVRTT
Sequence of cIAP1-BIR3 (Q13490 253-363 limits assumed): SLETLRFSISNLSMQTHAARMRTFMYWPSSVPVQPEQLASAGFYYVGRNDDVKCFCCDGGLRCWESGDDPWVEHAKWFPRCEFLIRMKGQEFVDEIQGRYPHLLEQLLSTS

EC50 (XIAP-BIR3): 126000 to 127000 pM | EC50 (cIAP1-BIR3): 860 to 880 pM | IC50 (Panc3.27 tumor cells): 2.6 to 8.4 pM
Structure (SMILES): CN[C@@H](C)C(=O)N[C@H](C(=O)N1CCC[C@H]1c1cncc(-c2ccc(F)cc2CNC(=O)c2ccc(-c3ccc(C(=O)NCc4cc(F)ccc4-c4cncc([C@@H]5CCCN5C(=O)[C@@H](NC(=O)[C@H](C)NC)C5CCCCC5)c4)cc3)cc2)c1)C1CCCCC1 [Example 3A, N4,N4′-bis(2-(5-((S)-1-(S)-2-cyclohexyl-2-((S)-2-(methylamino)-propanamido)acetyl)pyrrolidin-2-yl)pyridin-3-yl)-5-fluorobenzyl)biphenyl-4,4′-dicarboxamide, trifluoroacetate]
